Reference: US5179088A, “1-Carba(dethia)cephalosporin antibiotics” (Eli Lilly and Company, priority 1990, dated 1993)

Legend:
Assay type in all cases: cell-based
Design in all cases: unit not given here
[1] = system: Enterbacter Cloacea; experiment: in vitro antibacterial activity, agar dilution (Enterobacter cloacae)
Description: (§1) *minimum inhibitory concentrations were determined by the Agardilution

[2] = system: Streptococcus A; experiment: in vitro antibacterial activity, agar dilution (Streptococcus A)
Description: as §1

[3] = system: Staphylococcus Aureus; experiment: in vitro antibacterial activity, agar dilution (Staphylococcus aureus)
Description: as §1

[4] = system: Enterbacter Aerogenes; experiment: in vitro antibacterial activity, agar dilution (Enterobacter aerogenes)
Description: as §1

[5] = system: Acin; experiment: in vitro antibacterial activity, agar dilution (Acin)
Description: as §1

[6] = system: Proteus morg; experiment: in vitro antibacterial activity, agar dilution (Proteus morg)
Description: as §1

[7] = system: Serratia; experiment: in vitro antibacterial activity, agar dilution (Serratia)
Description: as §1

[8] = system: Pseudomonas; experiment: in vitro antibacterial activity, agar dilution (Pseudomonas)
Description: as §1

[9] = system: E. coli; experiment: in vitro antibacterial activity, agar dilution (E. coli)
Description: as §1

[10] = system: H. Influ.; experiment: in vitro antibacterial activity, agar dilution (H. influ.)
Description: as §1

[11] = system: Streptococcus D; experiment: in vitro antibacterial activity, agar dilution (Streptococcus D)
Description: as §1

[12] = system: Staphylococcus Epi; experiment: in vitro antibacterial activity, agar dilution (Staphylococcus epi)
Description: as §1

[13] = system: Proteus incon; experiment: in vitro antibacterial activity, agar dilution (Proteus incon)
Description: as §1

[14] = system: Citro; experiment: in vitro antibacterial activity, agar dilution (Citro)
Description: as §1

[15] = system: Proteus rett; experiment: in vitro antibacterial activity, agar dilution (Proteus rett)
Description: as §1

[16] = system: Streptococcus pn; experiment: in vitro antibacterial activity, agar dilution (Streptococcus pn); details: strain PARK
Description: as §1

[17] = system: Klebsiella; experiment: in vitro antibacterial activity, agar dilution (Klebsiella)
Description: as §1

[18] = system: Salmonella; experiment: in vitro antibacterial activity, agar dilution (Salmonella)
Description: as §1

[19] = system: Shig. sonn; experiment: in vitro antibacterial activity, agar dilution (Shig. sonn); details: strain N9
Description: as §1

CO/N=C(\C(=O)N[C@@H]1C(=O)N2C(C(=O)O)=C(c3csc(-c4ccc(O)c(O)c4)n3)CC[C@H]12)c1csc(N)n1 [Example 40, Sodium 7β-[(2-aminothiazol-4-yl)-Z-methoximinoacetylamino]-1-carba-(1-dethia)-3-2-(3,4-dihydroxyphenyl)thiazol-4-yl-3-cephem-4-carboxylate]
minimum inhibitory concentration ([1]; strain 265A): 64
minimum inhibitory concentration ([1]; strain 265A, retest): 32
minimum inhibitory concentration ([1]; strain EB5): .25
minimum inhibitory concentration ([1]; strain EB5, retest): .25
minimum inhibitory concentration ([2]; strain C203): .06
minimum inhibitory concentration ([2]; strain C203, retest): .125
minimum inhibitory concentration ([3]; strain S13E): 64
minimum inhibitory concentration ([3]; strain S13E, retest): 64
minimum inhibitory concentration ([3]; strain V41): 16
minimum inhibitory concentration ([3]; strain V41, retest): 8
minimum inhibitory concentration ([3]; strain X1.1): 8
minimum inhibitory concentration ([3]; strain X1.1, retest): 8
minimum inhibitory concentration ([3]; strain X400): > 128
minimum inhibitory concentration ([3]; strain X400, retest): > 128
minimum inhibitory concentration ([4]; strain C32): .5
minimum inhibitory concentration ([4]; strain C32, retest): .5
minimum inhibitory concentration ([4]; strain EB17): .03
minimum inhibitory concentration ([4]; strain EB17, retest): .06
minimum inhibitory concentration ([5]; strain AC12): 4
minimum inhibitory concentration ([5]; strain AC12, retest): 2
minimum inhibitory concentration ([6]; strain PR15): 4
minimum inhibitory concentration ([6]; strain PR15, retest): 4
minimum inhibitory concentration ([7]; strain SE3): 1
minimum inhibitory concentration ([7]; strain SE3, retest): 2
minimum inhibitory concentration ([7]; strain X99): .25
minimum inhibitory concentration ([7]; strain X99, retest): .125
minimum inhibitory concentration ([8]; strain PS18): 64
minimum inhibitory concentration ([8]; strain PS18, retest): 64
minimum inhibitory concentration ([8]; strain PS72, retest): 128
minimum inhibitory concentration ([8]; strain X239, retest): 128
minimum inhibitory concentration ([8]; strain X528): 8
minimum inhibitory concentration ([8]; strain X528, retest): 16
minimum inhibitory concentration ([9]; strain EC14): .06
minimum inhibitory concentration ([9]; strain EC14, retest): .06
minimum inhibitory concentration ([9]; strain N10): .125
minimum inhibitory concentration ([9]; strain N10, retest): .125
minimum inhibitory concentration ([9]; strain TEM): .06
minimum inhibitory concentration ([9]; strain TEM, retest): .03
minimum inhibitory concentration ([10]; res, strain 76): .015
minimum inhibitory concentration ([10]; res, strain 76, retest): .03
minimum inhibitory concentration ([10]; sens, strain C.L.): .125
minimum inhibitory concentration ([10]; sens, strain C.L., retest): .125
minimum inhibitory concentration ([11]; strain 2041): 16
minimum inhibitory concentration ([11]; strain 2041, retest): 16
minimum inhibitory concentration ([11]; strain X66): > 128
minimum inhibitory concentration ([11]; strain X66, retest): > 128
minimum inhibitory concentration ([12]; strain 222): 16
minimum inhibitory concentration ([12]; strain 222, retest): 16
minimum inhibitory concentration ([12]; strain 270): 32
minimum inhibitory concentration ([12]; strain 270, retest): 16
minimum inhibitory concentration ([13]; strain PR33): .125
minimum inhibitory concentration ([13]; strain PR33, retest): .25
minimum inhibitory concentration ([14]; strain CF17): 4
minimum inhibitory concentration ([14]; strain CF17, retest): 4
minimum inhibitory concentration ([15]; strain C24): .125
minimum inhibitory concentration ([15]; strain C24, retest): .25
minimum inhibitory concentration [16]: .125
minimum inhibitory concentration ([16]; retest): .125
minimum inhibitory concentration ([17]; strain KAE): 8
minimum inhibitory concentration ([17]; strain KAE, retest): 4
minimum inhibitory concentration ([17]; strain X26): .015
minimum inhibitory concentration ([17]; strain X26, retest): .03
minimum inhibitory concentration ([17]; strain X68): .06
minimum inhibitory concentration ([17]; strain X68, retest): .06
minimum inhibitory concentration ([18]; strain 1335): .06
minimum inhibitory concentration ([18]; strain 1335, retest): .06
minimum inhibitory concentration ([18]; strain X514): .03
minimum inhibitory concentration ([18]; strain X514, retest): .03

Cn1c([N+](=O)[O-])cnc1-c1nc(C2=C(C(=O)O)N3C(=O)[C@@H](NC(=O)/C(=N\O)c4csc(N)n4)[C@H]3CC2)cs1 [Example 33, 7β-[(2-Aminothiazol-4-yl)-Z-hydroxyiminoacetylamino]-1-carba-(1-dethia)-3-[2-(4-nitro-3-methylimidazol-2-yl)thiazol-4-yl]-3-cephem-4-carboxylicacid]
minimum inhibitory concentration ([1]; strain 265A): 16
minimum inhibitory concentration ([1]; strain EB5): 1
minimum inhibitory concentration ([2]; strain C203): < .008
minimum inhibitory concentration ([3]; strain S13E): 4
minimum inhibitory concentration ([3]; strain V41): .5
minimum inhibitory concentration ([3]; strain X1.1): .06
minimum inhibitory concentration ([3]; strain X400): > 128
minimum inhibitory concentration ([4]; strain C32): 1
minimum inhibitory concentration ([4]; strain EB17): 1
minimum inhibitory concentration ([5]; strain AC12): 128
minimum inhibitory concentration [19]: 2
minimum inhibitory concentration ([6]; strain PR15): 4
minimum inhibitory concentration ([7]; strain SE3): 16
minimum inhibitory concentration ([7]; strain X99): 2
minimum inhibitory concentration ([9]; strain EC14): 1
minimum inhibitory concentration ([9]; strain N10): 2
minimum inhibitory concentration ([9]; strain TEM): 1
minimum inhibitory concentration ([10]; res, strain 76): .015
minimum inhibitory concentration ([10]; sens, strain C.L.): .06
minimum inhibitory concentration ([11]; strain 2041): 1
minimum inhibitory concentration ([11]; strain X66): 128
minimum inhibitory concentration ([12]; strain 222): 1
minimum inhibitory concentration ([12]; strain 270): 4
minimum inhibitory concentration ([13]; strain PR33): .25
minimum inhibitory concentration ([14]; strain CF17): 4
minimum inhibitory concentration ([15]; strain C24): .06
minimum inhibitory concentration [16]: .015
minimum inhibitory concentration ([17]; strain KAE): 2
minimum inhibitory concentration ([17]; strain X26): .015
minimum inhibitory concentration ([17]; strain X68): 1
minimum inhibitory concentration ([18]; strain 1335): 2
minimum inhibitory concentration ([18]; strain X514): .5

CON=C(C(=O)NC1C(=O)N2C(C(=O)[O-])=C(c3csc(-c4ccc[n+](C)c4)n3)CCC12)c1csc(N)n1 (stereo not drawn) [Example 34, 7β-[(2-aminothiazol-4-yl)-Z-methoximinoacetylamino]-1-carba-(1-dethia)-3-[2-(1-methyl-3-pyridyl)thiazol-4-yl]-3-cephem-4-carboxylic acid]
minimum inhibitory concentration ([1]; strain 265A): 4
minimum inhibitory concentration ([1]; strain EB5): .125
minimum inhibitory concentration ([2]; strain C203): .015
minimum inhibitory concentration ([3]; strain S13E): > 128
minimum inhibitory concentration ([3]; strain V41): 8
minimum inhibitory concentration ([3]; strain X1.1): 1
minimum inhibitory concentration ([3]; strain X400): 128
minimum inhibitory concentration ([4]; strain C32): .03
minimum inhibitory concentration ([4]; strain EB17): .03
minimum inhibitory concentration ([5]; strain AC12): 128
minimum inhibitory concentration [19]: .06
minimum inhibitory concentration ([6]; strain PR15): .06
minimum inhibitory concentration ([7]; strain SE3): .125
minimum inhibitory concentration ([7]; strain X99): .06
minimum inhibitory concentration ([9]; strain EC14): .015
minimum inhibitory concentration ([9]; strain N10): .03
minimum inhibitory concentration ([10]; res, strain 76): .015
minimum inhibitory concentration ([10]; sens, strain C.L.): .015
minimum inhibitory concentration ([11]; strain 2041): 128
minimum inhibitory concentration ([11]; strain X66): > 128
minimum inhibitory concentration ([12]; strain 222): 4
minimum inhibitory concentration ([12]; strain 270): 16
minimum inhibitory concentration ([13]; strain PR33): .03
minimum inhibitory concentration ([14]; strain CF17): .015
minimum inhibitory concentration ([15]; strain C24): .03
minimum inhibitory concentration [16]: .015
minimum inhibitory concentration ([17]; strain KAE): .25
minimum inhibitory concentration ([17]; strain X26): < .008
minimum inhibitory concentration ([17]; strain X68): .06
minimum inhibitory concentration ([18]; strain 1335): .06
minimum inhibitory concentration ([18]; strain X514): .015

Nc1nc(C2=C(C(=O)O)N3C(=O)[C@@H](NC(=O)[C@H](N)c4ccccc4)[C@H]3CC2)cs1 [Example 41, 7β-(D-phenylglycylamino)-1-carba-(1-dethia)-3-(2-aminothiazol-4-yl)-3-cephem-4-carboxylic acid]
minimum inhibitory concentration ([1]; strain 265A): > 128
minimum inhibitory concentration ([1]; strain EB5): 128
minimum inhibitory concentration ([2]; strain C203): 2
minimum inhibitory concentration ([3]; strain S13E): 64
minimum inhibitory concentration ([3]; strain V41): 32
minimum inhibitory concentration ([3]; strain X1.1): 4
minimum inhibitory concentration ([3]; strain X400): > 128
minimum inhibitory concentration ([4]; strain C32): 128
minimum inhibitory concentration ([4]; strain EB17): 128
minimum inhibitory concentration ([5]; strain AC12): > 128
minimum inhibitory concentration ([6]; strain PR15): 128
minimum inhibitory concentration ([7]; strain SE3): 128
minimum inhibitory concentration ([7]; strain X99): 128
minimum inhibitory concentration ([8]; strain PS18): > 128
minimum inhibitory concentration ([8]; strain PS72): > 128
minimum inhibitory concentration ([8]; strain X239): > 128
minimum inhibitory concentration ([8]; strain X528): > 128
minimum inhibitory concentration ([9]; strain EC14): 64
minimum inhibitory concentration ([9]; strain N10): 128
minimum inhibitory concentration ([9]; strain TEM): 64
minimum inhibitory concentration ([10]; res, strain 76): 32
minimum inhibitory concentration ([10]; sens, strain C.L.): 64
minimum inhibitory concentration ([11]; strain 2041): > 128
minimum inhibitory concentration ([11]; strain X66): > 128
minimum inhibitory concentration ([12]; strain 222): 16
minimum inhibitory concentration ([12]; strain 270): 32
minimum inhibitory concentration ([13]; strain PR33): 128
minimum inhibitory concentration ([14]; strain CF17): > 128
minimum inhibitory concentration ([15]; strain C24): > 128
minimum inhibitory concentration [16]: 2
minimum inhibitory concentration ([17]; strain KAE): 128
minimum inhibitory concentration ([17]; strain X26): 16
minimum inhibitory concentration ([17]; strain X68): 128
minimum inhibitory concentration ([18]; strain 1335): 128
minimum inhibitory concentration ([18]; strain X514): 128
